According to paper PMC10987797, “Functional characterization of Capsicum chinense vanillin aminotransferase: Detection of vanillylamine-forming activity from vanillin” (Biochemistry and Biophysics Reports, 2024):
One block for each compound: values may come before it.

Assays:
Assay type in all cases: biochemical
[1] = target: T1, VAMT (vanillin aminotransferase; rVAMT) (Capsicum chinense, UniProt O82521); assay: HPLC assay of vanillylamine formation, Michaelis-Menten fit; conditions: 0.1 mM PLP, 50 mM potassium phosphate pH 8.0, standard assay 30 °C, ping-pong
T1 construct: full length, N-terminal His6-tag (pET28a) cut off by thrombin; recombinant from E. coli Rosetta2 (DE3)
T1 sequence (O82521 whole entry): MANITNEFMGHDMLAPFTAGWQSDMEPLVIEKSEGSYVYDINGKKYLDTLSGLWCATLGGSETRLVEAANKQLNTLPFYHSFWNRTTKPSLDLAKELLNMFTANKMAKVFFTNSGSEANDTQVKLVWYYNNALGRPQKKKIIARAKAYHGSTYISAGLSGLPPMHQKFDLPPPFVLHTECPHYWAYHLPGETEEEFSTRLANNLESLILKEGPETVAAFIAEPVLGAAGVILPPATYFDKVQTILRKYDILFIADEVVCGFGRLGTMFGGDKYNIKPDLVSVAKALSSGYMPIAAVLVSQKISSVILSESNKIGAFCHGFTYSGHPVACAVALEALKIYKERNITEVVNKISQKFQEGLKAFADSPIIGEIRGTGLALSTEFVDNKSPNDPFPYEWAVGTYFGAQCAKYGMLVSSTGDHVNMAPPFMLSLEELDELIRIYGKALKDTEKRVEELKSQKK
Excerpt: HPLC assay of vanillylamine formation, Michaelis-Menten fit on VAMT (vanillin aminotransferase; rVAMT)

[2] = target: T1, VAMT (vanillin aminotransferase; rVAMT); assay: HPLC assay of vanillin formation, Michaelis-Menten fit; conditions: 0.1 mM PLP, 50 mM potassium phosphate pH 8.0, standard assay 30 °C
Excerpt: HPLC assay of vanillin formation, Michaelis-Menten fit on VAMT (vanillin aminotransferase; rVAMT)

[3] = target: T1, VAMT (vanillin aminotransferase; rVAMT); assay: HPLC assay of vanillin glucoside formation, Michaelis-Menten fit; conditions: 100 mM pyruvate as amino acceptor, 0.1 mM PLP, 50 mM potassium phosphate pH 8.0; standard assay 30 °C
Excerpt: HPLC assay of vanillin glucoside formation, Michaelis-Menten fit on VAMT (vanillin aminotransferase; rVAMT)

[4] = target: T1, VAMT (vanillin aminotransferase; rVAMT); assay: HPLC assay of vanillylamine glucoside formation, Michaelis-Menten fit; conditions: 100 mM GABA as amino donor, 0.1 mM PLP, 50 mM potassium phosphate pH 8.0; standard assay 30 °C
Excerpt: HPLC assay of vanillylamine glucoside formation, Michaelis-Menten fit on VAMT (vanillin aminotransferase; rVAMT)

SMILES: COc1cc(CN)ccc1O[C@@H]1O[C@H](CO)[C@@H](O)[C@H](O)[C@H]1O [VAG]
Km [3]: 15 ± 4.8 mM

SMILES: COc1cc(CN)ccc1O [VA]
Km ([2]; 100 mM pyruvate as amino acceptor): 0.25 ± 0.037 mM

SMILES: COc1cc(C=O)ccc1O[C@@H]1O[C@H](CO)[C@@H](O)[C@H](O)[C@H]1O [VG]
Km [4]: 3.3 ± 0.56 mM

More lines, now with the values ahead:

Km ([1]; 5 mM vanillin as amino acceptor): 36 ± 2.1 mM
SMILES: NCCCC(=O)O [GABA]

Km ([2]; 5 mM vanillylamine as amino donor): 5.4 ± 0.34 mM
SMILES: CC(=O)C(=O)O [Na pyruvate]

Km ([1]; 100 mM GABA as amino donor): 0.48 ± 0.049 mM
SMILES: COc1cc(C=O)ccc1O [V]
